From PubChem BioAssay (NCI)
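Assay format: 96-well plates, 48-hour exposure. GI50 is the concentration that inhibits growth by half. At the TGI there is no net growth.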

What was measured:
Test in all cases: DTP human tumour cell line panel, 48 h
[1] = tested on: HT29 colon
[2] = tested on: HCT-116 colon
[3] = tested on: IGROV1 ovarian
[4] = tested on: NCI-H522 lung
[5] = tested on: OVCAR-4 ovarian
[6] = tested on: NCI-H460 lung
[7] = tested on: OVCAR-8 ovarian
[8] = tested on: MDA-MB-231 breast
[9] = tested on: PC-3 prostate
[10] = tested on: SK-MEL-5 melanoma
[11] = tested on: SN12C renal
[12] = tested on: 786-0 renal
[13] = tested on: RPMI-8226 leukemia
[14] = tested on: MALME-3M melanoma
[15] = tested on: RXF 393 renal
[16] = tested on: HOP-92 NSCLC
[17] = tested on: SF-539 CNS
[18] = tested on: EKVX NSCLC
[19] = tested on: LOX IMVI melanoma
[20] = tested on: SW-620 colon
[21] = tested on: KM12 colon
[22] = tested on: K-562 leukemia
[23] = tested on: NCI-H226 lung
[24] = tested on: CCRF-CEM leukemia
[25] = tested on: HS 578T breast
[26] = tested on: UACC-62 melanoma
[27] = tested on: T-47D breast
[28] = tested on: SK-MEL-28 melanoma

COc1cc2c3c(n(C)c(=O)c2cc1OC)-c1ccc(C#N)cc1C3=O
TGI [1]: > 100 µM
GI50 [2]: > 100 µM
TGI [2]: > 100 µM
GI50 [3]: 30.5 µM
TGI [3]: > 100 µM
GI50 [4]: 52 µM
TGI [4]: > 100 µM
GI50 [5]: > 100 µM
TGI [5]: > 100 µM
GI50 [6]: > 100 µM
TGI [6]: > 100 µM
GI50 [7]: > 100 µM
TGI [7]: > 100 µM
GI50 [8]: > 100 µM
TGI [8]: > 100 µM
GI50 [9]: > 100 µM
TGI [9]: > 100 µM
GI50 [10]: > 100 µM
TGI [10]: > 100 µM
GI50 [11]: > 100 µM
TGI [11]: > 100 µM
GI50 [12]: > 100 µM
TGI [12]: > 100 µM
GI50 [13]: > 100 µM
TGI [13]: > 100 µM
GI50 [14]: > 100 µM
TGI [14]: > 100 µM
GI50 [15]: > 100 µM
TGI [15]: > 100 µM
GI50 [16]: > 100 µM
TGI [16]: > 100 µM
GI50 [17]: > 100 µM
TGI [17]: > 100 µM
GI50 [18]: > 100 µM
TGI [18]: > 100 µM
GI50 [19]: > 100 µM
TGI [19]: > 100 µM
GI50 [20]: > 100 µM
TGI [20]: > 100 µM
GI50 [21]: > 100 µM
TGI [21]: > 100 µM
GI50 [22]: > 100 µM
TGI [22]: > 100 µM
GI50 [23]: > 100 µM
TGI [23]: > 100 µM
GI50 [24]: > 100 µM
TGI [24]: > 100 µM
GI50 [25]: > 100 µM
TGI [25]: > 100 µM
GI50 [26]: > 100 µM
TGI [26]: > 100 µM
GI50 [27]: 91.9 µM
TGI [27]: > 100 µM
GI50 [28]: > 100 µM
TGI [28]: > 100 µM
